Key:
Assay in all cases: relative viability (nuclei count vs DMSO), 5 days (fraction); higher = more cells survive
NCI-H596 = conditions: first compound 20 µM
How it was run: (§1)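 Lung cancer cell lines, seeded in 1536-well plates, were treated the following day by pin tool with a single drug or with five library-drug doses (not always all listed) in √10 steps on top of a fixed anchor-drug dose. Cells were fixed and nuclei stained in one step after 5 days, and nuclei were counted. Relative viability is the nuclei count for treated wells divided by that for vehicle wells, reported as medians of duplicate plates.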

LCLC-97TM1 = tested on: LCLC-97TM1
How it was run: as §1

NCI-H2405 = tested on: NCI-H2405
How it was run: as §1

NCI-H1755 = tested on: NCI-H1755
How it was run: as §1

NCI-H2085 = tested on: NCI-H2085
How it was run: as §1

NCI-H441 = tested on: NCI-H441
How it was run: as §1

SK-MES-1 = tested on: SK-MES-1
How it was run: as §1

201T = tested on: 201T
How it was run: as §1

NCI-H650 = tested on: NCI-H650
How it was run: as §1

RERF-LC-KJ = tested on: RERF-LC-KJ
How it was run: as §1

LCLC-103H = tested on: LCLC-103H
How it was run: as §1

LOU-NH91 = tested on: LOU-NH91
How it was run: as §1

With `COCC1(CO)C(=O)C2CCN1CC2` (centres undefined) [PRIMA-1MET] + COc1cccc2cc(-c3nc([C@H]4CC[C@H](C(=O)O)CC4)n4ncnc(N)c34)[nH]c12 [OSI-027] (partner 0.5 µM) the relative viability (NCI-H596) was 0.645, the relative viability (LCLC-97TM1; first compound 0.2 µM) was 0.306 and the relative viability (LCLC-97TM1; first compound 0.6325 µM) was 0.554. It also gave a relative viability (LCLC-97TM1; first compound 2 µM) of 0.582, a relative viability (LCLC-97TM1; first compound 6.325 µM) of 0.364 and a relative viability (LCLC-97TM1; first compound 20 µM) of 0.438. For the same molecule, the relative viability (NCI-H2405; first compound 0.2 µM) was 0.501, the relative viability (NCI-H2405; first compound 0.6325 µM) was 0.653 and the relative viability (NCI-H2405; first compound 6.325 µM) was 0.591. For the same molecule, the relative viability (NCI-H2405; first compound 20 µM) was 0.499, the relative viability (NCI-H1755; first compound 0.2 µM) was 0.664 and the relative viability (NCI-H1755; first compound 0.6325 µM) was 0.668. It also gave a relative viability (NCI-H1755; first compound 2 µM) of 0.402, a relative viability (NCI-H1755; first compound 6.325 µM) of 0.682 and a relative viability (NCI-H1755; first compound 20 µM) of 0.673. It also gave a relative viability (NCI-H2085; first compound 0.2 µM) of 0.707, a relative viability (NCI-H2085; first compound 0.6325 µM) of 0.665 and a relative viability (NCI-H2085; first compound 2 µM) of 0.315. It also gave a relative viability (NCI-H2085; first compound 6.325 µM) of 0.548, a relative viability (NCI-H2085; first compound 20 µM) of 0.194 and a relative viability (NCI-H441; first compound 0.2 µM) of 0.593. It also gave a relative viability (NCI-H441; first compound 0.6325 µM) of 0.629, a relative viability (NCI-H441; first compound 2 µM) of 0.663 and a relative viability (NCI-H441; first compound 6.325 µM) of 0.611. For the same molecule, the relative viability (NCI-H441; first compound 20 µM) was 0.313, the relative viability (SK-MES-1; first compound 0.2 µM) was 0.65 and the relative viability (SK-MES-1; first compound 0.6325 µM) was 0.711. The relative viability (SK-MES-1; first compound 2 µM) was 0.543, the relative viability (SK-MES-1; first compound 6.325 µM) was 0.633 and the relative viability (SK-MES-1; first compound 20 µM) was 0.436. The relative viability (201T; first compound 0.2 µM) was 0.82, the relative viability (201T; first compound 0.6325 µM) was 0.702 and the relative viability (201T; first compound 2 µM) was 0.591. The relative viability (201T; first compound 6.325 µM) was 0.759, the relative viability (201T; first compound 20 µM) was 0.747 and the relative viability (NCI-H650; first compound 0.2 µM) was 0.705. For the same molecule, the relative viability (NCI-H650; first compound 2 µM) was 0.5, the relative viability (NCI-H650; first compound 6.325 µM) was 0.603 and the relative viability (NCI-H650; first compound 20 µM) was 0.381. It also gave a relative viability (RERF-LC-KJ; first compound 0.2 µM) of 0.56, a relative viability (RERF-LC-KJ; first compound 0.6325 µM) of 0.625 and a relative viability (RERF-LC-KJ; first compound 2 µM) of 0.54. For the same molecule, the relative viability (RERF-LC-KJ; first compound 6.325 µM) was 0.662, the relative viability (RERF-LC-KJ; first compound 20 µM) was 0.588 and the relative viability (LCLC-103H; first compound 0.2 µM) was 0.547. For the same molecule, the relative viability (LCLC-103H; first compound 0.6325 µM) was 0.391, the relative viability (LCLC-103H; first compound 2 µM) was 0.399 and the relative viability (LCLC-103H; first compound 6.325 µM) was 0.481. The relative viability (LCLC-103H; first compound 20 µM) was 0.409, the relative viability (LOU-NH91; first compound 0.2 µM) was 0.806 and the relative viability (LOU-NH91; first compound 0.6325 µM) was 0.719. It also gave a relative viability (LOU-NH91; first compound 2 µM) of 0.589, a relative viability (LOU-NH91; first compound 6.325 µM) of 0.662 and a relative viability (LOU-NH91; first compound 20 µM) of 0.468.
